A short description of data set [1]: Apparent pKa by direct titration with NaOH. It counts as physicochemical. The settings on record: aqueous solution, concentration above the minimum aggregation concentration; pH at semi-equivalence point. The method, then:
In order to determine the ionization state of these gemini surfactants at the pH used to investigate their biological properties, the apparent acid pKa was determined for each of them. The pKap value has been determined by means of a direct titration with NaOH of an aqueous solution of each compound. The surfactant concentrations used were in all cases higher than the minimum aggregation concentration, thus avoiding possible deviations in the pK value due to the monomer–aggregate balance. The pKap values can be estimated from the pH at the semi-equivalence point that is reached when the molar ratio of protonated and non-protonated species is 1:1. In these conditions, we have that the pH = pKa.
The pKa value of each compound has been determined by means of a direct titration with NaOH of an aqueous solution of each compound. The pH was measured using the pH electrode Thermo Electron Corporation ORION 8103SC and the temperature was controlled by a thermostatic bath, Heto CBN 8-30. The pKa values can be estimated from the pH at the semi-equivalence point, which contains a 1:1 molar ratio of protonated and non-protonated species; at this point, pH = pKap.

On the set-up of data set [2]: method as in doi:10.1021/la981295l. The settings on record: cited from earlier work.
On the set-up of data set [3]: method as in doi:10.1021/la981295l. The settings on record: cited from earlier work. The source holds these as a separate data set.
Data set [4] relates to Gram-positive and Gram-negative bacteria. Put plainly: Minimum inhibitory concentration (MIC), broth microdilution. It counts as cell-based. The following applies: planktonic bacteria, 24 h at 37 °C, values only in Figure 2. An excerpt:
The Gram-positive bacteria tested include some problematic microorganisms such us L. monocytogenes; these bacteria cause listeriosis, a serious disease that has grown considerably in industrialized countries due to the increased ratio of immunosuppressed persons and the extensive use of refrigerated food. We have also tested the effectivity of these surfactants against methicillin-resistant Staphylococcus aureus (MRSA), which is known as a major cause of hospital-acquired infections and, at this time, is a remarkable public health problem. […] For comparison, this figure also includes the MIC values of a LAM (lauroyl arginine methyl ester) surfactant that can be considered the single-stranded homologue of these geminis and the BAC (benzalkonium ammonium chloride), a quaternary ammonium surfactant widely used as antiseptic.
Antimicrobial tests were carried out against the following microorganisms: Bacillus subtilis ATCC 6633, Staphylococcus epidermidis ATCC 12228, Staphylococcus aureus ATCC 29213, Listeria monocytogenes ATCC 15313, Enterococcus faecalis ATCC 29212, Escherichia coli ATCC 25922, Acinetobacter baumannii ATCC 19606, Klebsiella aerogenes ATCC 13048, methicillin-resistant Staphylococcus aureus ATCC 43300 and Pseudomonas aeruginosa PAO1. […] The growth of the microorganisms was determined visually after incubation for 24 h at 37 °C. […]

Data set [5] concerns Pseudomonas aeruginosa PAO1 biofilm. The data set is described as follows: Biofilm inhibition, crystal violet. The format is cell-based. The settings on record: P. aeruginosa PAO1, 24 h contact, 2–128 μg/mL tested. The method, then:
(§1) The ability of MRSA and P. aeruginosa to form biofilms on propylene surfaces in the presence of bis-Args was determined. The two bacterial cells were kept in contact with the gemini surfactants at different concentrations from 2 to 128 μg/mL for 24 h. Then, the percentage of biofilm inhibition was determined.
(§2) Antibiofilm activity was assessed against biofilm-producing strains of methicillin-resistant Staphylococcus aureus (MRSA) ATCC 43300 and Pseudomonas aeruginosa PAO1. Biofilm inhibition and eradication capacities of the gemini surfactants were evaluated against adherent bacterial biofilms grown in 96-well microtiter plates. Bacteria were grown overnight in tryptic soy agar at 37 °C for 24 h. The bacteria were suspended in lysogeny broth with glucose (1%) at 1.5 × 10^8 CFU/mL.
(§3) Biofilm inhibition procedure: 100 μL of the gemini surfactant at different concentration values was added to each well in a 96-well microplate, then, 100 μL of the diluted bacterial suspension was added to the wells. Two-fold serial dilutions of the gemini surfactants to be tested were used (2–128 μg/mL). Microtiter plates were incubated at 37 °C for 24 h. Spent growth media was then discarded and biofilm was fixed with 150 μL methanol for 10 min. After the plates were air dried, the biofilms were stained with 50 μL of 0.1 of % crystal violet for 25 min. The plates were rinsed with water and then 150 μL of 96% ethanol containing 10% acetic acid was added to all 96-well plates to dissolve the remaining crystal violet-stained biofilm. The absorbance value was recorded at 570 nm. Each assay was performed at least three times and the results were averaged.

Data set [6] deals with methicillin-resistant Staphylococcus aureus (MRSA) ATCC 43300 biofilm. Put plainly: Biofilm inhibition, crystal violet. The format is cell-based. The settings on record: 24 h contact, 2–128 μg/mL tested. As for the experimental part:
as §1, §2, §3

Data set [7] relates to Pseudomonas aeruginosa PAO1 biofilm. The data set is described as follows: Biofilm eradication, crystal violet. It counts as cell-based. The settings on record: P. aeruginosa PAO1, at 32 μg/mL. As for the experimental part:
(§4) The ability of these geminis to disperse and eradicate biofilms once formed on the propylene surfaces of the microtiter plates was evaluated using the same bacterial strains. […] The susceptibility of both biofilms against the tested surfactants was similar. At a low concentration of 32 μg/mL, C3(CA)2 and C3(LA)2 were able to eradicate around 60–70% of preformed biofilm; however, at this concentration, the […] hydrophobic compound, C3(OA)2, eradicated less than 30% of biofilm. At high concentrations, the eradication percentage is similar for all alkyl chains. […] In this case, at low concentrations, there is not a clear dependence between the antibiofilm properties and the spacer; however, at a high concentration, the best effectivity was obtained for the longer spacer chains.
as §2
(§5) Biofilm eradication procedure: For mature biofilm formation, 200 μL of the diluted bacterial suspension was added to each well in a 96-well microplate and incubated at 37 °C for 24 h. The wells were gently rinsed with phosphate-buffered saline (PBS) and 200 μL of the corresponding gemini surfactant solution was added to each well and incubated again at 37 °C for 24 h. Two-fold serial dilutions of the gemini surfactant were used (4–128 μg/mL). After the plates were air dried, the biofilms were stained with 50 μL of 0.1 of % crystal violet for 25 min. The plates were rinsed with water and then 150 μL of 96% ethanol containing 10% acetic acid was added to all 96-well plates to dissolve the remaining crystal violet-stained biofilm. The absorbance value was recorded at 570 nm. Each assay was conducted at least three times and the results were averaged.

Data set [8] concerns methicillin-resistant Staphylococcus aureus (MRSA) ATCC 43300 biofilm. The data set is described as follows: Biofilm eradication, crystal violet. The following applies: at 32 μg/mL. It counts as cell-based. The method, then:
as §4, §2, §5

Data set [9] deals with porcine pancreatic elastase (Sus scrofa, UniProt P00772). Put plainly: Elastase inhibitory assay. The format is biochemical. The following applies: 40 µL of 1000 µg/mL stock; EGCG 250 μM. As for the experimental part:
The elastase inhibition was tested according to the method described by […] et al.. First, a stock solution of each surfactant at 1000 μg/mL was prepared in sterile ultrapure water. A stock solution of porcine pancreatic elastase at 3.33 mg/mL in sterile ultrapure water was also prepared. The substrate […] (Ala) 3-p-nitroanilide was dissolved in 0.2 mM Tris-HCl buffer solution (pH 8.0). The samples (40 μL) were then diluted and incubated together with the enzyme for 15 min prior to the substrate addition. Negative control was sterile ultrapure water, while EGCG (250 μM or 0.114 mg/mL) was used as the positive control. The absorbance at λ = 410 nm was measured immediately after the substrate addition and continuously during the next 2 h using an Elx800 Microplate Reader (Biotek®). […] The anti-elastase activity (in %), determined in triplicate, was calculated according to the following equation:(2) Elastase inhibitory activity %=A1-A2/A1×100 where A1 and A2 represent the absorbance in the absence and presence of the testing samples, respectively.

Data set [10] has as its system bovine hyaluronidase. Put plainly: Hyaluronidase inhibitory activity. The following applies: negative inhibition values. It counts as biochemical. The method, then:
The hyaluronidase inhibitory activity was performed according to the method used by Altinyay et al. with some modifications. Briefly, a work solution containing bovine hyaluronidase (7900 units/mL) in 0.1 M acetate buffer (pH 3.6) was prepared. Fifty microliters of the work solution were mixed 1:1 with the surfactants’ solution in 5% DMSO. For the negative control, 50 μL of 5% DMSO was used, while EGCG was used as positive control. After 20 min of incubation at 37 °C, 50 μL of calcium chloride (12.5 mM) was added to the mixture and again incubated for 20 min at 37 °C. At that point, 250 μL sodium hyaluronate (1.2 mg/mL) was added and incubated for 40 min at 37 °C. After incubation, the mixture was treated with 50 μL of 0.4 M NaOH and 100 μL of 0.2 M sodium borate and then incubated for 3 min in a boiling water bath. After cooling to room temperature, 1.4 mL of p-dimethylaminobenzaldehyde solution was added to the reaction mixture, being further incubated at 37 °C for 20 min. The resulting colored solution was measured at λ = 585 nm (PerkinElmer-Lambda 35, Brazil). The hyaluronidase inhibitory activity of each sample was calculated according to the following formula:(3) Hyaluronidase inhibitory activity %=A1−A2/A1×100 where A1 and A2 represent the absorbance in the absence and presence of the testing sample, respectively.

Data set [11] is described as follows: Cell viability, NRU assay. The format is cell-based, human. The following applies: human, HaCaT cells (immortal human keratinocytes); NRU, HaCaT, surfactant in solution at 35.6 µg/mL, 24 h; read-out: cellular viability. As for the experimental part:
(§6) The immortal human keratinocyte (HaCaT) and the squamous cell carcinoma (A431) were obtained from Celltec, University of Barcelona. The cells were grown in DMEM medium (4.5 g/L glucose) supplemented with 10% (v/v) FBS, 2 mM L-glutamine, 100 U/mL of penicillin and 100 μg/mL of streptomycin at 37 °C under 5% CO2. Cells were routinely cultured in 75 cm^2 culture flasks and were trypsinized using trypsin-EDTA when reached approximately 80% of confluence.
(§7) HaCaT cells (1 × 10^5 cells/mL) and A431 cells (5 × 10^4 cells/mL) were grown at the defined densities into the central 60 wells of a 96-well microplate. Cells were incubated for 24 h under 5% CO2 at 37 °C. The medium was then removed and the cells were incubated with the surfactants (100 μL), previously diluted 1:1 (v/v), reaching a concentration of […] in DMEM medium supplemented with 5% FBS using two different colorimetric methods for quantification, as follows.
(§8) The accumulation of the neutral red dye in the lysosomes of viable, undamaged cells constitutes the basis of the neutral red uptake (NRU) assay. After the cells were incubated for 24 h with the corresponding systems at 35.6 µg/mL, the medium was removed and the surfactants´ solutions were incubated for 3 h with the NRU dye solution (50 μg/mL) dissolved in the medium without FBS and phenol red (Lonza). Cells were then washed with sterile PBS, followed by the addition of 100 μL of a solution containing 50% ethanol absolute and 1% acetic acid in distilled water to extract the non-adhered dye. The microplates were then stirred for 5 min at 25 °C to promote the dissolution. Finally, the absorbance of the resulting solutions was measured at λ = 550 nm using a Bio-Rad 550 microplate reader (Hercules, CA, USA).

The test system of data set [12] is squamous cell carcinoma (A431). Put plainly: Cell viability, NRU assay. The format is cell-based. The settings on record: A431, surfactant in solution at 35.6 µg/mL, 24 h. As for the experimental part:
as §6, §7, §8

On the set-up of data set [13]: method as in doi:10.1021/la981295l. The following applies: cited from earlier work. This is another data set of the same source.

Marks after values point to notes of the source that are not given here.

porcine pancreatic elastase, sequence (P00772 27-266): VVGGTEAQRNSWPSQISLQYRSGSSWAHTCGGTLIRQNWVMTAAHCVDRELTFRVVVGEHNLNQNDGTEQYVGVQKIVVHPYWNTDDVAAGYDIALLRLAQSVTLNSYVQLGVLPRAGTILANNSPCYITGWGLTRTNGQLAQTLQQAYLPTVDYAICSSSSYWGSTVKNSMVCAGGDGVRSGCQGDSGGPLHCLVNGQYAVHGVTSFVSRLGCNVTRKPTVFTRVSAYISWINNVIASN

Take `CCCCCCCCCCCC(=O)NC(CCCNC(=N)N)C(=O)NCC(O)CNC(=O)C(CCCNC(=N)N)NC(=O)CCCCCCCCCCC` (stereo not drawn) [C3(LA)2OH, Bis (N^α-lauroyl arginine) (2-hydroxy-1,3-propane) diamide]: in data set [1], the pKap is recorded as 10.9. Besides, the “CMC (mM) Conductivity” value in data set [2] is listed as 0.6 * mM. For the same compound, the “CMC (mM) Fluorescence” value in data set [3] is 0.6 * mM.

`CCCCCCCC(=O)NC(CCCNC(=N)N)C(=O)NCCCNC(=O)C(CCCNC(=N)N)NC(=O)CCCCCCC` (stereo not drawn) [C3(OA)2]: the “antimicrobial activity (MIC), in words” value in data set [4] is listed as “lowest antimicrobial efficiency (highest MIC values)”. The “concentration that inhibits biofilm formation” value in data set [5] and in data set [6] was 128 µg/mL each time. For the same compound, the preformed biofilm eradicated result in [7] and in [8] was “less than 30%” each time. Besides, the “CMC (mM) Fluorescence” value in [3] is recorded as 8 * mM.

Consider `CCCCCCCCCCCC(=O)NC(CCCNC(=N)N)C(=O)NCCCCCCNC(=O)C(CCCNC(=N)N)NC(=O)CCCCCCCCCCC` (stereo not drawn) [C6(LA)2], for which the pKap in data set [1] is 10.5. For the same compound, the “anti-elastase activity (inhibition)” value in [9] was determined as 10.5%. Besides, the “increase of hyaluronidase enzymatic activity” value in [10] amounted to 47.2%. Moreover, the viability at 24 h, 35.6 µg/mL in [11] stood at 99.3%. For the same compound, in data set [12], the “cytotoxicity, in words” value is on record as “did not cause any apparent cytotoxicity”. Besides, the “CMC (mM) Conductivity” value in data set [2] was 0.4 * mM. Also, the “CMC (mM) Fluorescence” value in data set [3] is 0.4 * mM. Further, in data set [13], the “CMC (mM) Surface Tension” value was 0.002 * mM. Also, the γcmc in data set [13] (surface tension at the cmc) is reported as 30 * mN/m.

The record behind these values is paper PMC10536132, “Arginine Gemini-Based Surfactants for Antimicrobial and Antibiofilm Applications: Molecular Interactions, Skin-Related Anti-Enzymatic Activity and Cytotoxicity” (Molecules, 2023).
